Experimental data: patent US20070111118A1, “Electrophotographic photoconductor and image-forming apparatus” (priority 2005, published 2007)

Test: Solubility of the hole-transfer agent in triglyceride oleate
Type: physicochemical
Conditions: 25° C., g per 100 g of triglyceride oleate
Text: Here, the term “solubility in triglyceride oleate (% by weight)” means the amount of a solvent (hole-transfer agent) (g) with reference to 100 g of triglyceride oleate.

HTM Solubility [w %] | SMILES
11.1 | CC(C)c1ccc(N(c2ccccc2)c2cccc(N(c3ccccc3)c3ccc(C(C)C)cc3)c2)cc1 [HTM-1]
37.0 | Cc1ccccc1N(c1ccc(-c2ccc(N(c3ccccc3C)c3ccccc3/C=C/c3ccccc3)cc2)cc1)c1ccccc1/C=C/c1ccccc1 [HTM-9]
2.1 | CCc1cccc(C)c1N(c1ccccc1)c1ccc(/C=C/c2ccc(/C=C/c3ccc(N(c4ccccc4)c4c(C)cccc4CC)cc3)cc2)cc1 [HTM-8]

SMILES | HTM Solubility [w %]
CCCCc1ccc(N(c2ccc(C)cc2)c2c(N(c3ccc(C)cc3)c3ccc(CCCC)cc3)c3ccccc3c3ccccc23)cc1 [HTM-10] | 2.8
